SMILES strings stand for the structures.

One assay has as its system NO production in BV2 cells (microglia). As to the kind of experiment: NO production in LPS-stimulated BV2 cells (Griess reaction), antineuritic activity. The assay is classed as cell-based. Conditions: 10 μM, 100 ng/ml LPS for 24 hours, nitrite by Griess reaction, FIG. 26. Here is the method: BV2 cells (microglia) were dispensed in DMEM culture solution at a concentration of 6×10^4 cells/well in a 96 well plate, and then treated with the compounds of the present invention at a concentration of 10 μM, and incubated for 24 hours. After 24 hours, each sample was treated with a concentration of 10 μM, reacted for 1 hour, and then stimulated with 100 ng/ml of LPS for 24 hours. The production of nitrite, a soluble oxidation product of NO (nitric oxide), was measured in the culture medium through the Griess reaction.
On the technique in general: The Griess reaction detects nitrite, a stable product of nitric oxide.
Turning to `COCOc1c(Br)c(OC)cc2c1CN(CCc1ccc(OC)cc1)C2=O` [Formula 12, 5-bromo-6-methoxy-4-(methoxymethoxy)-2-(4-methoxyphenethyl)isoindolin-1-one], the “NO production compared to untreated control group” value is recorded as “significantly reduced”. With `C=Cc1c(OC)cc2c(c1OCOC)CN(CCc1ccc(OC)cc1)C2=O` [Formula 13, 6-methoxy-4-(methoxymethoxy)-2-(4-methoxyphenethyl)-5-vinylisoindolin-1-one], the “NO production compared to untreated control group” value is recorded as “significantly reduced”. The same measure, in the same setting: to `COc1ccc(CCN2Cc3c(cc(OC)c(CCO)c3O)C2=O)cc1` [Formula 15, 4-hydroxy-5-(2-hydroxyethyl)-6-methoxy-2-(4-methoxyphenethyl)isoindolin-1-one] belongs “significantly reduced”; to `COc1cc2c(c(O)c1CCCO)CN(CCc1ccccc1)C2=O` [Formula 17, 4-hydroxy-5-(3-hydroxypropyl)-6-methoxy-2-phenethyl isoindolin-1-one], “significantly reduced”. Take `COc1cc2c(c3c1CCO3)CN(CCc1ccccc1)C2=O` [Formula 19, 4-methoxy-7-phenethyl-7,8-dihydro-2H-furo[2,3-e]isoindole-6(3H)-1]: the “NO production compared to untreated control group” value is given as “significantly reduced”.

`C=Cc1c(OC)cc2c(c1O)CN(CCc1ccc(OC)cc1)C2=O` [Formula 21]: the “NO production compared to untreated control group” value is reported as “significantly reduced”.

The test system of another assay is nerve growth factor (NGF) in C6 glioma cells. As to the kind of experiment: Ability to promote increase of nerve growth factor (NGF) produced in cell medium, ELISA. The note with it: 10 μM, 24 hours, FIG. 22. In kind it is cell-based, Rat. Here is the method: Rat astrocyte-derived C6 glioma cells were dispensed in DMEM culture solution at a concentration of 1×10^5 cells/well in a 24 well plate and stabilized overnight, and then treated with the compounds of the present invention at a concentration of 10 μM, and reacted in a 37° C. incubator for 24 hours. The treated medium was collected and centrifuged, and then absorbance was measured using an enzyme linked immunoassay kit (ELISA kit).
In general terms: In an ELISA, binding on a coated surface is turned into a signal by an enzyme label.
`COc1cc2c(c(O)c1Br)CN(CCc1ccc(F)cc1)C2=O` [Formula 1, 5-bromo-2-(4-fluorophenethyl)-4-hydroxy-6-methoxyisoindolin-1-one]: the “nerve growth factor produced in the cell medium” value (“nerve growth factor produced” below) is reported as “significantly excellent”.

Consider `COc1cc2c(c(O)c1Br)CN(CCc1ccc(C(F)(F)F)cc1)C2=O` [Formula 6, 5-bromo-4-hydroxy-6-methoxy-2-(4-(trifluoromethyl)phenethyl)isoindolin-1-one], for which the “nerve growth factor produced” value is “significantly excellent”. Take `C=Cc1c(OC)cc2c(c1OCOC)CN(CCc1ccc(OC)cc1)C2=O` [Formula 13, 6-methoxy-4-(methoxymethoxy)-2-(4-methoxyphenethyl)-5-vinylisoindolin-1-one]: the “nerve growth factor produced” value was “significantly excellent”. Turning to `C=Cc1c(OC)cc2c(c1O)CN(CCc1ccc(C(F)(F)F)cc1)C2=O` [Formula 20, 4-hydroxy-6-methoxy-2-(4-(trifluoromethyl)phenethyl)-5-vinylisoindolin-1-one], the “nerve growth factor produced” value was “significantly excellent”.

Values taken from US20230331672A1, “6-METHOXY-2-PHENETHYL ISOINDOLINE-1-ONE DERIVATIVE AND COMPOSITION FOR TREATING NEUROLOGICAL DISORDERS, COMPRISING SAME” (CNG BIO CO., LTD., priority 2020, published 2023).
